Measurements as given in patent US8697739B2, “Bicyclic acetyl-CoA carboxylase inhibitors and uses thereof” (Novartis AG, priority 2010, dated 2014).

Assays:
in vitro = assay type: cell-based; details: human
Description: (§1) The effect of compounds on HCV infection was determined in vitro using cell cultured (HCVcc) genotype 2a (JFH-1 strain) virus. A renilla luciferase reporter gene was inserted in the viral genome, the expression of which was under the control of HCV 5′UTR (JFH-1^rLuc). Thus, the inhibition of HCV infection or replication can be indirectly measured by the reduction of luciferase activity in the cells. A specifically adapted hepatoma cell line, Huh 7.5, which allowed higher infectivity of HCV in vitro, was cultured in Dulbecco's modified Eagle's medium (DMEM) supplemented with 2 mM L-glutamine, 0.1 mM non-essential amino acids and 10% heat-inactivated fetal bovine serum. The cells were infected with JFH-1^rLuc virus at an MOI=0.01 and were treated at the same time with serially diluted compounds. After 72 hours, luciferase activities in compound-treated cells were measured using the Renilla Luciferase Assay System (Promega) and were compared to those in untreated control cells. Concentration-dependent inhibition curves were generated, from which EC50 values, the concentrations of compounds at which luciferase activities were reduced by 50% relative to untreated control, were calculated. In parallel, cytotoxicity of compounds was determine by measuring the viability of compound-treated cells using CellTiter 96® AQueous One Solution Cell Proliferation Assay (Promega). CC50 represented the concentration of the compound at which cell viability was reduced by 50% compared to untreated control.

[1] = target: T1, human acetyl-CoA carboxylase 2 (ACC2) (Homo sapiens, UniProt O00763); test: Acetyl-CoA carboxylase enzyme assay (malonyl-CoA formation by LC/MS/MS); assay type: biochemical; details: recombinant human ACC2 (aa 144-2458); read-out: IC50 ACC2
T1 construct: The cDNA encoding amino acids 144 to 2458 of human acetyl-CoA carboxylase 2; made in house; host or cells: Sf9 insect cells (baculovirus, pFastBac1)
T1 sequence (O00763 144-2458): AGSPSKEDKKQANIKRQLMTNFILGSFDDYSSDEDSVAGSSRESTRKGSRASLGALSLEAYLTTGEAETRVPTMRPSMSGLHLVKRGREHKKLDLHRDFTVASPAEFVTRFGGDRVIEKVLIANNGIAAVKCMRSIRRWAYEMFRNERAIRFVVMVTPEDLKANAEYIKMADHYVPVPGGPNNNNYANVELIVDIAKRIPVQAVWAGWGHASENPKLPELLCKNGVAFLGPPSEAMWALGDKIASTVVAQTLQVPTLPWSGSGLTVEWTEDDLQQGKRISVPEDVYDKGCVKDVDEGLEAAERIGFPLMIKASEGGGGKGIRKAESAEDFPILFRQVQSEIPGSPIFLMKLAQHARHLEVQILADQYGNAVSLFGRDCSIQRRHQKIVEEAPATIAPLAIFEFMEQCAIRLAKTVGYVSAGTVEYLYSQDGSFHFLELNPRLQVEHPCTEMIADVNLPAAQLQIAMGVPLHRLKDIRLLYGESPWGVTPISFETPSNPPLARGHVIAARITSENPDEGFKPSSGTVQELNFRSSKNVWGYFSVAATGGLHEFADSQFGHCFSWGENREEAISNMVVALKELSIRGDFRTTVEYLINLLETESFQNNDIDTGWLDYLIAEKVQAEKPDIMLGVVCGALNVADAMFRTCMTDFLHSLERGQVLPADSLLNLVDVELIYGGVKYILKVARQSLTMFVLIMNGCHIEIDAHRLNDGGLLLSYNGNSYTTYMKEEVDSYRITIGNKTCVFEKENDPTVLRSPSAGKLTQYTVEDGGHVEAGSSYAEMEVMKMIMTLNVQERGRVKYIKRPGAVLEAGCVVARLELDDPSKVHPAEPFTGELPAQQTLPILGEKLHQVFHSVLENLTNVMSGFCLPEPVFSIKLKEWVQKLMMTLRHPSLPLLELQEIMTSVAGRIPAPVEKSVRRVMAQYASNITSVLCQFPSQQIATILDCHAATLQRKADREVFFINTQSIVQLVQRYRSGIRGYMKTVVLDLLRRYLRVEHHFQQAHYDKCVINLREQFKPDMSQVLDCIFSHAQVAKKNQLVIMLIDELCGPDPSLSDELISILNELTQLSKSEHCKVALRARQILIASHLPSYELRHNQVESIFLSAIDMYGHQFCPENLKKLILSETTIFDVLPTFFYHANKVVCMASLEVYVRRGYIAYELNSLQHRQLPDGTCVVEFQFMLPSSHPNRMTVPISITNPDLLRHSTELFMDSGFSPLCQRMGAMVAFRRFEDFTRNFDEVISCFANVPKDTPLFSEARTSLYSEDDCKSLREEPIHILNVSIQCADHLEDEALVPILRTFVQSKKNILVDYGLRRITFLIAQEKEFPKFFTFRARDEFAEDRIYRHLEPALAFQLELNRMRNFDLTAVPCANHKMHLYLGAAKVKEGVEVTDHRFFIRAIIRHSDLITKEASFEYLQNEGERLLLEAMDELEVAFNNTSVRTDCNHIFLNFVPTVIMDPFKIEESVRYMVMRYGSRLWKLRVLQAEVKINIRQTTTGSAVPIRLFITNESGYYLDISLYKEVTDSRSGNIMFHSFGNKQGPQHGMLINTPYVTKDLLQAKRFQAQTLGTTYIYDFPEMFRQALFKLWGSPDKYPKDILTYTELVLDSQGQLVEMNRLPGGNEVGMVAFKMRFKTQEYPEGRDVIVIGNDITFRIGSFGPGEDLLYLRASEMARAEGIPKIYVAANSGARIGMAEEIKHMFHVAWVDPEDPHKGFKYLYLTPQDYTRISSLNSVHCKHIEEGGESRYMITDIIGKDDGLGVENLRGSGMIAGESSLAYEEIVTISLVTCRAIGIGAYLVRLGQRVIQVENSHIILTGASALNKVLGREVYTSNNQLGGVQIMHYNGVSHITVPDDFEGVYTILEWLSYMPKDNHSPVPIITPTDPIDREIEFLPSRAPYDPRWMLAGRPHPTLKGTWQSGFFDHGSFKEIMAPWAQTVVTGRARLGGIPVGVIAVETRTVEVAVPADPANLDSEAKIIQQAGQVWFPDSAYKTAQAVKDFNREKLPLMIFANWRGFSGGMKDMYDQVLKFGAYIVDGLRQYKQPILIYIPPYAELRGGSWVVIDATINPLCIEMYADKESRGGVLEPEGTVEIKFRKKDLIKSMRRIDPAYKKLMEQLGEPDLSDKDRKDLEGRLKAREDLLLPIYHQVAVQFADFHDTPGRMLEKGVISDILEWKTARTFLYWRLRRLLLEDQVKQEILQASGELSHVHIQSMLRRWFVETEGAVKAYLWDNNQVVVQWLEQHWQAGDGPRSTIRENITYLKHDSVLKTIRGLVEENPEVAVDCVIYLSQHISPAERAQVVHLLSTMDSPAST
Summary of the method: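 Malonyl-CoA formation was read by LC/MS/MS MRM against a [13C3]-malonyl-CoA internal standard, after acetic acid quench. The enzyme was baculovirus/Sf9-expressed human ACC2 residues 144–2458, given 15 minutes room-temperature compound preincubation in HEPES pH 7.5 buffer with MgCl2, citrate and DTT. Substrate solution held 50 μM acetyl-CoA, 120 μM ATP and 2 mM KHCO3.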

[2] = test system: HCVcc genotype 2a (JFH-1 strain) virus; test: HCV assay: JFH-1 rLuc infection of Huh 7.5 cells, renilla luciferase readout; assay type: cell-based; details: Hepatitis C virus, Huh7.5; JFH-1 rLuc virus, MOI=0.01, Huh 7.5 cells, 72 hours, luciferase activity reduced by 50%
Description: as §1

## Cn1c(-c2ccccc2)cc2ccc(S(=O)(=O)N[C@H]3CC[C@H](C(=O)N4CC5(CN(C(=O)OC(C)(C)C)C5)C4)CC3)cc21 [Example 483, tert-butyl 6-((1r,4r)-4-(1-methyl-2-phenyl-1H-indole-6-sulfonamido)cyclohexanecarbonyl)-2,6-diazaspiro[3.3]heptane-2-carboxylate]
In vitro
  CC50 at 72 h: 16000 nM
[1]
  IC50: 75 nM
[2]
  EC50: 40 nM
